How the values were obtained:
Assay type in all cases: cell-based; call rule not given here
HepG2 [1] = assay: Cytotoxicity against human HepG2 cells incubated for 24 hrs by MTT assay; settings: hepg2, 24 h
[2] = target: T1, Proprotein convertase subtilisin/kexin type 9 (Homo sapiens, UniProt Q8NBP7); assay: Inhibition of human PCSK9 in HepG2 cells incubated for 48 hrs by AlphaLISA assay
HepG2 [3] = assay: Cytotoxicity against human HepG2 cells at <50 uM incubated for 24 hrs by MTT assay; settings: hepg2, 24 h
[4] = target: T1, Proprotein convertase subtilisin/kexin type 9; assay: Inhibition of human PCSK9 in HepG2 cells incubated for 24 hrs followed by medium replenishment and measured after 24 hrs by ELISA

T1 sequence (Q8NBP7 31-152 limits assumed): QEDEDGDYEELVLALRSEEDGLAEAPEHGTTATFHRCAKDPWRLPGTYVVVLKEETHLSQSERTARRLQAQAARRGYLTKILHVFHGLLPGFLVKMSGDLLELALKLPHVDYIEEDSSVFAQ
T1 sequence (Q8NBP7 153-692 limits assumed): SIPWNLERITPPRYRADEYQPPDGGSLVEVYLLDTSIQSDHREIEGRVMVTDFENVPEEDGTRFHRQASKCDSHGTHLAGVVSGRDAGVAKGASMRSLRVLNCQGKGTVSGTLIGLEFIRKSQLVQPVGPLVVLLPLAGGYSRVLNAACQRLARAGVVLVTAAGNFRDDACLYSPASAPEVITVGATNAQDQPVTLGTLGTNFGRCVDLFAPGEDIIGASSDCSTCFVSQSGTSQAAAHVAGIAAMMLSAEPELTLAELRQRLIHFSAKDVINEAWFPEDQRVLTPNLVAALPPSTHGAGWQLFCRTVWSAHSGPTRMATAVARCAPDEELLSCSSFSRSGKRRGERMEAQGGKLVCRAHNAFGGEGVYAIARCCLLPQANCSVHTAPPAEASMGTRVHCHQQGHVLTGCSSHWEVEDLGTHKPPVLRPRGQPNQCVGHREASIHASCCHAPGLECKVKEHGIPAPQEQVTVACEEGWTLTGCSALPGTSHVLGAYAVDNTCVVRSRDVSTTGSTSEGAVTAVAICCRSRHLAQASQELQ

SMILES	IC50 ([2]; read-out: IC50) [nM]	IC50 ([2]; hepg2)	IC50 [4] [nM]	Activity (HepG2 [1]) [µM]	Activity (HepG2 [3])
Clc1ccc2[nH]cc(Cc3cc4ccccc4[nH]3)c2c1	10000	–	–	> 50	–
Cc1ccc2[nH]cc(Cc3cc4ccccc4[nH]3)c2c1	5600	–	–	> 50	–
Cc1ccc(S(=O)(=O)n2c(Cc3c[nH]c4c(Cl)cccc34)c(C)c3ccccc32)cc1	2300	–	–	> 50	–
Brc1ccc2[nH]cc(Cc3cc4ccccc4[nH]3)c2c1	–	Not Active	–	–	–
Cc1ccc(S(=O)(=O)n2c(Cc3cn(C)c4ccccc34)c(-c3ccccc3)c3ccccc32)cc1	2300	–	–	48	–
Clc1cccc2c(Cc3cc4ccccc4[nH]3)c[nH]c12	2800	–	–	> 50	–
Fc1ccc2[nH]c(Cc3c[nH]c4c(F)cccc34)cc2c1	–	–	202	–	Non-Toxic

Second part, led by results:

IC50 ([2]; read-out: IC50) [nM]	IC50 ([2]; hepg2)	IC50 [4] [nM]	SMILES	Activity (HepG2 [1]) [µM]	Activity (HepG2 [3])
1400	–	–	Cc1ccc2c(Cc3cc4ccccc4[nH]3)c[nH]c2c1	45	–
1500	–	–	Cc1ccc(S(=O)(=O)n2c(Cc3cn(C)c4ccccc34)c(C)c3ccccc32)cc1	45	–
1100	–	–	Cc1ccc(S(=O)(=O)n2c(Cc3cn(C)c4ccccc34)c(C(C)C)c3ccccc32)cc1	> 50	–
250	–	–	Fc1ccc2[nH]c(Cc3c[nH]c4c(Cl)cccc34)cc2c1	> 50	–
300	–	–	Fc1cccc2c(Cc3cc4ccccc4[nH]3)c[nH]c12	38	–
900	–	–	Cc1cccc2c(Cc3cc4ccccc4[nH]3)c[nH]c12	> 50	–
